Source: patent US9708318B2, “Bicyclic heterocycles as FGFR4 inhibitors” (Incyte Corporation, priority 2015, dated 2017)
Read-outs that look alike come from different tables or passages of the source.

Tests used:
[1] = molecular target: FGFR3 enzyme (Homo sapiens (Human), UniProt P22607); experiment: FGFR Enzymatic Assay (FRET peptide phosphorylation), FGFR3; type: biochemical; settings: for FGFR1/FGFR3 IC50 ratio / FGFR4/FGFR3 IC50 ratio: FGFR3 selectivity
Procedure: (§1) The inhibitor potency of the exemplified compounds was measured in an enzyme assay that measures peptide phosphorylation using FRET measurements to detect product formation. Inhibitors were serially diluted in DMSO and a volume of 0.5 μL was transferred to the wells of a 384-well plate.
(§2) GraphPad prism3 was used to analyze the data.

[2] = molecular target: FGFR1 (Homo sapiens (Human), UniProt P11362); experiment: FGFR Enzymatic Assay (FRET peptide phosphorylation), FGFR1
[3] = molecular target: FGFR2 (Homo sapiens (Human), UniProt P21802); experiment: FGFR Enzymatic Assay (FRET peptide phosphorylation), FGFR2; type: biochemical
Procedure: as §1
(§3) The enzymes were purchased from Millipore or Invitrogen.
as §2

[4] = molecular target: FGFR4 (Homo sapiens (Human), UniProt P22455); experiment: FGFR Enzymatic Assay (FRET peptide phosphorylation), FGFR4; type: biochemical
Procedure: as §1, §3, §2

[5] = pre-incubated for 4 hours, read-out: FGFR3 IC50
[6] = FGFR1 IC50 (nM), pre-incubated for 4 hours
[7] = pre-incubated for 5 to 10 minutes, read-out: FGFR3 IC50
[8] = FGFR1 IC50 (nM), pre-incubated for 5 to 10 minutes
[9] = pre-incubated for 5 to 10 minutes

Sequence of FGFR4 (P22455 22-802): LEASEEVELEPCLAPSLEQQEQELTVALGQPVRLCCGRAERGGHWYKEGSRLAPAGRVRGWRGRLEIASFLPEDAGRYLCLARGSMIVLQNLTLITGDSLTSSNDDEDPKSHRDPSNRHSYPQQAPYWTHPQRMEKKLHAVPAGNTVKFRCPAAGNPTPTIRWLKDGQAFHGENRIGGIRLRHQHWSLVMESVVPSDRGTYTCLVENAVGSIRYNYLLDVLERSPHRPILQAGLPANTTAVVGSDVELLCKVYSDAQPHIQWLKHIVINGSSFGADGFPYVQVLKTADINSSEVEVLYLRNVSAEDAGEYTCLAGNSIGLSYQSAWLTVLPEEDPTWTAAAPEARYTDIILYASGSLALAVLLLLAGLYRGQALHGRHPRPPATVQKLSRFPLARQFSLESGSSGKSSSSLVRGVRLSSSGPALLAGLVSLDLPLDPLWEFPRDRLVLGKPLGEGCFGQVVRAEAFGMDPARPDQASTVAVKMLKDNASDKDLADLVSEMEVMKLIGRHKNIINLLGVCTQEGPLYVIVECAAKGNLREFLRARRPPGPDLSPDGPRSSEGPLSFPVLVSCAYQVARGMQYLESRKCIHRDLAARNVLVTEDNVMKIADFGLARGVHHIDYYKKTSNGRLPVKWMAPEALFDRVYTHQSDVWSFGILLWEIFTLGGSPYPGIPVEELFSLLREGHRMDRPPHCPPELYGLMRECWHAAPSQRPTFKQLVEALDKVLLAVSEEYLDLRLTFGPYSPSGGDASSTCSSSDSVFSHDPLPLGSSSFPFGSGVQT
Sequence of FGFR2 (P21802 22-821): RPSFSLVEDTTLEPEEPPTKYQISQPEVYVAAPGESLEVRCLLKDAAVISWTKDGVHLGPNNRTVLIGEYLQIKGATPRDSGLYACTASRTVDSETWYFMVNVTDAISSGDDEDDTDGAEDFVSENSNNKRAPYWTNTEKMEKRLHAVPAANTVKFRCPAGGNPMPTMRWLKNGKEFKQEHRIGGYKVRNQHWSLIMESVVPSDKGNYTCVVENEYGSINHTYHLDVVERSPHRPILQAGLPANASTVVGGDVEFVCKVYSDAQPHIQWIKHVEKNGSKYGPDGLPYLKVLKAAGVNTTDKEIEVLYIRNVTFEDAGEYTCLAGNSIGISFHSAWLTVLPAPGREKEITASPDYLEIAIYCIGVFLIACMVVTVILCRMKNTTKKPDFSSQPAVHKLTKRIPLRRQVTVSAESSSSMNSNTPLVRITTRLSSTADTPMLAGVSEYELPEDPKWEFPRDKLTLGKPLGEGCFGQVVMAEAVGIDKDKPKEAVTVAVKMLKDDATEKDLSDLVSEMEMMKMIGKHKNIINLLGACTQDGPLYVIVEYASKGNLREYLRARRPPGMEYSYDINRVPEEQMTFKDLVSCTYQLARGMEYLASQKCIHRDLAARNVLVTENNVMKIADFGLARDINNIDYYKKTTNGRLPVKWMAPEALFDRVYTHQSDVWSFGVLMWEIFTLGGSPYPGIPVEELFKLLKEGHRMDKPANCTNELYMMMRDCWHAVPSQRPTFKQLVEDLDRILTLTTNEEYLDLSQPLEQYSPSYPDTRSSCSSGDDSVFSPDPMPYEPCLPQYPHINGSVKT
Sequence of FGFR1 (P11362 22-822): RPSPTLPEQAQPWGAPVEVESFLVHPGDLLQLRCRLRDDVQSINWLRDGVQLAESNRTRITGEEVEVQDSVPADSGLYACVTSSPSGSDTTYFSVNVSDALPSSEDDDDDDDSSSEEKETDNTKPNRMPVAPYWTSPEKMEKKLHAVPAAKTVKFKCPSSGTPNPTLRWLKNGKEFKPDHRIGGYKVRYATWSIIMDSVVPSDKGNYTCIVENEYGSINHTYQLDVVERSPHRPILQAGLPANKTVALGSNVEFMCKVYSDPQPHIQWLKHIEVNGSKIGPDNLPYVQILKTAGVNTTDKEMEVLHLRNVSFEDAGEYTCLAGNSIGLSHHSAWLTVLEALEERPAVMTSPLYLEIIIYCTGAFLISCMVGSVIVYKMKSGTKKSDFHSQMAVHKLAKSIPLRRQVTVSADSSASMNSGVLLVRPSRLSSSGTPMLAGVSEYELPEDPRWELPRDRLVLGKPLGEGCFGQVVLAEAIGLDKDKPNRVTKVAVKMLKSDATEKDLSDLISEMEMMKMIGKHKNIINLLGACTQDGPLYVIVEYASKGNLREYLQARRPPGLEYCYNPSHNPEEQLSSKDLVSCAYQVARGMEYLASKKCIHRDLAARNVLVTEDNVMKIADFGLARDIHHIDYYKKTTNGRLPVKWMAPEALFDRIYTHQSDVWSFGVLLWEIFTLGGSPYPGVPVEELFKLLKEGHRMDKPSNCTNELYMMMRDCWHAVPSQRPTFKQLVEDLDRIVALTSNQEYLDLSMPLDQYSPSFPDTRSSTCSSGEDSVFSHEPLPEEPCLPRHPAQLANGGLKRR
Sequence of FGFR3 enzyme (P22607 23-806): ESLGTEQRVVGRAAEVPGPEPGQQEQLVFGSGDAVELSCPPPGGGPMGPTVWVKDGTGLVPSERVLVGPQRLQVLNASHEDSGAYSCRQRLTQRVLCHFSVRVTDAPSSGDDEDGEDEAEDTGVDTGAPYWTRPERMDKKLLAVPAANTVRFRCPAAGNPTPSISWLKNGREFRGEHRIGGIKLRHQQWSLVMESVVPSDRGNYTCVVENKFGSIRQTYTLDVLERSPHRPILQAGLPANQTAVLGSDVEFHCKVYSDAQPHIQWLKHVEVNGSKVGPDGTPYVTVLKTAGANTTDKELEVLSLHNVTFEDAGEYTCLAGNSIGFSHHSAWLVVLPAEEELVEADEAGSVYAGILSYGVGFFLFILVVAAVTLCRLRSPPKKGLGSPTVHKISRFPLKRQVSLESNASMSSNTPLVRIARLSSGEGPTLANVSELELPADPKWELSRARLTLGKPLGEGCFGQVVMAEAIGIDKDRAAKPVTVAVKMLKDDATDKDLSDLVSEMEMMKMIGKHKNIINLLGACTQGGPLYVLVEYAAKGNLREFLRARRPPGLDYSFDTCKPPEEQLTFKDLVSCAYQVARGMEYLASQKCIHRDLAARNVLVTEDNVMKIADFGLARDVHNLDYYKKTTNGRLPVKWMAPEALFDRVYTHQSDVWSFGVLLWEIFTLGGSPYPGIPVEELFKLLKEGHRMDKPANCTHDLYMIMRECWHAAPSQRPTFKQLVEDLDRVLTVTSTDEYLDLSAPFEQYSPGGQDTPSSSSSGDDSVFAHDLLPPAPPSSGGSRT

Row | FGFR1/FGFR3 IC50 ratio ([1]; pre-incubated for 4 hours) | FGFR4/FGFR3 IC50 ratio ([1]; pre-incubated for 4 hours) | IC50 [1, 5] | IC50 [2, 6] | IC50 ([3]; pre-incubated for 4 hours) | IC50 ([4]; pre-incubated for 4 hours) | IC50 [1, 7] | IC50 [2, 8] | IC50 [3, 9] | IC50 [4, 9] | IC50 ([2]; read-out: FGFR1 IC50, pre-incubated for 4 hours) | IC50 ([2]; read-out: FGFR1 IC50, pre-incubated for 5 to 10 minutes) | SMILES | IC50 [1] | IC50 [2]
1 | >3 | >5 | < 10 nM | 30 to 200 nM | < 10 nM | 30 to 200 nM |  |  |  |  |  |  | COc1cc(OC)c(F)c(N2Cc3cnc(-c4cn(C)nc4C)cc3N(c3ccc(-c4nnc(C)o4)cc3)C2=O)c1F [Example 115, 3-(2,6-difluoro-3,5-dimethoxyphenyl)-7-(1,3-dimethyl-1H-pyrazol-4-yl)-1-(4-(5-methyl-1,3,4-oxadiazol-2-yl)phenyl)-3,4-dihydropyrido[4,3-d]pyrimidin-2(1H)-one] |  | 
2 |  |  |  |  |  |  | < 10 nM | 10 to 30 nM | < 10 nM | 10 to 30 nM |  |  | CCOc1cc(CN2C(=O)N(c3c(F)c(OC)cc(OC)c3F)Cc3cnc(-c4cn(C)nc4C)cc32)ccn1 [Example 116, 3-(2,6-difluoro-3,5-dimethoxyphenyl)-7-(1,3-dimethyl-1H-pyrazol-4-yl)-1-((2-ethoxypyridin-4-yl)methyl)-3,4-dihydropyrido[4,3-d]pyrimidin-2(1H)-one] |  | 
3 |  |  |  |  |  |  | 10 to 30 nM | 30 to 200 nM | 10 to 30 nM | 30 to 200 nM |  |  | COc1cc(OC)c(F)c(N2Cc3cnc(-c4cn(C)nc4C)cc3N(Cc3ccc4c(c3)nnn4C)C2=O)c1F [Example 118, 3-(2,6-difluoro-3,5-dimethoxyphenyl)-7-(1,3-dimethyl-1H-pyrazol-4-yl)-1-((1-methyl-1H-benzo[d][1,2,3]triazol-5-yl)methyl)-3,4-dihydropyrido[4,3-d]pyrimidin-2(1H)-one] |  | 
4 |  |  |  |  |  |  | < 10 nM | 10 to 30 nM | < 10 nM | 10 to 30 nM |  |  | COc1cc(OC)c(F)c(N2Cc3cnc(-c4cn(C)nc4C)cc3N(c3ccc4c(c3)CC(=O)N4)C2=O)c1F [Example 119, 3-(2,6-difluoro-3,5-dimethoxyphenyl)-7-(1,3-dimethyl-1H-pyrazol-4-yl)-1-(2-oxoindolin-5-yl)-3,4-dihydropyrido[4,3-d]pyrimidin-2(1H)-one] |  | 
5 |  |  |  |  |  |  | < 10 nM | 10 to 30 nM | < 10 nM | 30 to 200 nM |  |  | COc1cc(OC)c(F)c(N2Cc3cnc(-c4cn(C)nc4C)cc3N(Cc3ccnc(C)n3)C2=O)c1F [Example 121, 3-(2,6-difluoro-3,5-dimethoxyphenyl)-7-(1,3-dimethyl-1H-pyrazol-4-yl)-1-((2-methylpyrimidin-4-yl)methyl)-3,4-dihydropyrido[4,3-d]pyrimidin-2(1H)-one] |  | 
6 | >5 | >3 | < 10 nM | 30 to 200 nM | < 10 nM | 10 to 30 nM |  |  |  |  |  |  | COC(=O)Nc1ccc(N2C(=O)N(c3c(F)c(OC)cc(OC)c3F)Cc3cnc(-c4cn(C)nc4C)cc32)cc1 [Example 123, Methyl 4-(3-(2,6-difluoro-3,5-dimethoxyphenyl)-7-(1,3-dimethyl-1H-pyrazol-4-yl)-2-oxo-3,4-dihydropyrido[4,3-d]pyrimidin-1(2H)-yl)phenylcarbamate] |  | 
7 | >10 | >10 | < 10 nM |  | < 10 nM | < 10 nM |  |  |  |  | < 10 nM |  | COc1cc(OC)c(F)c(N2Cc3cnc(-c4cn(C)nc4C)cc3N(Cc3cnn(C4CC4)c3)C2=O)c1F [Example 124, 1-((1-cyclopropyl-1H-pyrazol-4-yl)methyl)-3-(2,6-difluoro-3,5-dimethoxyphenyl)-7-(1,3-dimethyl-1H-pyrazol-4-yl)-3,4-dihydropyrido[4,3-d]pyrimidin-2(1H)-one] |  | 
8 | >5 | >5 | 10 to 30 nM | 30 to 200 nM | < 10 nM | 30 to 200 nM |  |  |  |  |  |  | COc1cc(OC)c(F)c(N2Cc3cnc(-c4cn(C)nc4C)cc3N(Cc3cnn(CC#N)c3)C2=O)c1F [Example 125, 2-(4-((3-(2,6-difluoro-3,5-dimethoxyphenyl)-7-(1,3-dimethyl-1H-pyrazol-4-yl)-2-oxo-3,4-dihydropyrido[4,3-d]pyrimidin-1(2H)-yl)methyl)-1H-pyrazol-1-yl)acetonitrile] |  | 
9 |  |  |  |  |  |  | < 10 nM | 10 to 30 nM | < 10 nM | 30 to 200 nM |  |  | COc1cc(OC)c(F)c(N2Cc3cnc(-c4cn(C)nc4C)cc3N(Cc3cnn(CC4CC4)c3)C2=O)c1F [Example 126, 1-((1-(cyclopropylmethyl)-1H-pyrazol-4-yl)methyl)-3-(2,6-difluoro-3,5-dimethoxyphenyl)-7-(1,3-dimethyl-1H-pyrazol-4-yl)-3,4-dihydropyrido[4,3-d]pyrimidin-2(1H)-one] |  | 
10 |  |  |  |  |  |  | 10 to 30 nM | 30 to 200 nM | 10 to 30 nM | 30 to 200 nM |  |  | COc1cc(OC)c(F)c(N2Cc3cnc(-c4cn(C)nc4C)cc3N(Cc3cnn(CC4CCCO4)c3)C2=O)c1F (centres unmarked) [Example 127, 3-(2,6-difluoro-3,5-dimethoxyphenyl)-7-(1,3-dimethyl-1H-pyrazol-4-yl)-1-((1-((tetrahydrofuran-2-yl)methyl)-1H-pyrazol-4-yl)methyl)-3,4-dihydropyrido[4,3-d]pyrimidin-2(1H)-one] |  | 
11 |  |  |  |  |  |  | < 10 nM |  | < 10 nM | 10 to 30 nM |  | < 10 nM | COc1cc(OC)c(F)c(N2Cc3cnc(-c4cn(C)nc4C)cc3N(Cc3cnn(CC(F)F)c3)C2=O)c1F [Example 128, 3-(2,6-difluoro-3,5-dimethoxyphenyl)-1-((1-(2,2-difluoroethyl)-1H-pyrazol-4-yl)methyl)-7-(1,3-dimethyl-1H-pyrazol-4-yl)-3,4-dihydropyrido[4,3-d]pyrimidin-2(1H)-one] |  | 
12 | >5 | >10 | < 10 nM | 10 to 30 nM | < 10 nM | 30 to 200 nM |  |  |  |  |  |  | COc1cc(OC)c(F)c(N2Cc3cnc(-c4cn(C)nc4C)cc3N(c3cn[nH]c3)C2=O)c1F [Example 129, 3-(2,6-difluoro-3,5-dimethoxyphenyl)-7-(1,3-dimethyl-1H-pyrazol-4-yl)-1-(1H-pyrazol-4-yl)-3,4-dihydropyrido[4,3-d]pyrimidin-2(1H)-one] |  | 
13 | >5 | >5 | 10 to 30 nM | 30 to 200 nM | 10 to 30 nM | 30 to 200 nM |  |  |  |  |  |  | COc1cc(OC)c(F)c(N2Cc3cnc(-c4cn(C)nc4C)cc3N(c3cnn(C4CC4)c3)C2=O)c1F [Example 130, 1-(1-cyclopropyl-1H-pyrazol-4-yl)-3-(2,6-difluoro-3,5-dimethoxyphenyl)-7-(1,3-dimethyl-1H-pyrazol-4-yl)-3,4-dihydropyrido[4,3-d]pyrimidin-2(1H)-one] |  | 
14 | >3 | >10 | 10 to 30 nM | 30 to 200 nM | 10 to 30 nM | > 200 nM |  |  |  |  |  |  | CCn1cc(N2C(=O)N(c3c(F)c(OC)cc(OC)c3F)Cc3cnc(-c4cn(C)nc4C)cc32)cn1 [Example 131, 3-(2,6-difluoro-3,5-dimethoxyphenyl)-7-(1,3-dimethyl-1H-pyrazol-4-yl)-1-(1-ethyl-1H-pyrazol-4-yl)-3,4-dihydropyrido[4,3-d]pyrimidin-2(1H)-one] |  | 
15 | >3 | >5 | < 10 nM | 10 to 30 nM | < 10 nM | 30 to 200 nM |  |  |  |  |  |  | COc1cc(OC)c(F)c(N2Cc3cnc(-c4cn(C)nc4C)cc3N(c3ccc4cn[nH]c4c3)C2=O)c1F [Example 133, 3-(2,6-difluoro-3,5-dimethoxyphenyl)-7-(1,3-dimethyl-1H-pyrazol-4-yl)-1-(1H-indazol-6-yl)-3,4-dihydropyrido[4,3-d]pyrimidin-2(1H)-one] |  | 
16 | >3 | >5 | < 10 nM | 10 to 30 nM | < 10 nM | 30 to 200 nM |  |  |  |  |  |  | COc1cc(OC)c(F)c(N2Cc3cnc(-c4cn(C)nc4C)cc3N(c3ccc4[nH]ncc4c3)C2=O)c1F [Example 134, 3-(2,6-difluoro-3,5-dimethoxyphenyl)-7-(1,3-dimethyl-1H-pyrazol-4-yl)-1-(1H-indazol-5-yl)-3,4-dihydropyrido[4,3-d]pyrimidin-2(1H)-one] |  | 
17 | >5 | >10 | < 10 nM | 30 to 200 nM | < 10 nM | 30 to 200 nM |  |  |  |  |  |  | COc1cc(OC)c(F)c(N2Cc3cnc(-c4ccc(C5(C#N)CCC5)nc4)cc3N(c3ccncn3)C2=O)c1F [Example 135, 1-(5-(3-(2,6-difluoro-3,5-dimethoxyphenyl)-2-oxo-1-(pyrimidin-4-yl)-1,2,3,4-tetrahydropyrido[4,3-d]pyrimidin-7-yl)pyridin-2-yl)cyclobutanecarbonitrile] |  | 
18 |  |  |  |  |  |  | 10 to 30 nM | 30 to 200 nM | 10 to 30 nM | 30 to 200 nM |  |  | COc1cc(OC)c(F)c(N2Cc3cnc(-c4ccc(C5(C#N)CCC5)nc4)cc3N(C3CCC3)C2=O)c1F [Example 136, 1-(5-(1-cyclobutyl-3-(2,6-difluoro-3,5-dimethoxyphenyl)-2-oxo-1,2,3,4-tetrahydropyrido[4,3-d]pyrimidin-7-yl)pyridin-2-yl)cyclobutanecarbonitrile] |  | 

Row | SMILES | FGFR1/FGFR3 IC50 ratio ([1]; pre-incubated for 4 hours) | FGFR4/FGFR3 IC50 ratio ([1]; pre-incubated for 4 hours) | IC50 [1, 5] | IC50 [2, 6] | IC50 ([3]; pre-incubated for 4 hours) | IC50 ([4]; pre-incubated for 4 hours) | IC50 [1, 7] | IC50 [2, 8] | IC50 [3, 9] | IC50 [4, 9] | IC50 ([2]; read-out: FGFR1 IC50, pre-incubated for 4 hours) | IC50 ([2]; read-out: FGFR1 IC50, pre-incubated for 5 to 10 minutes) | IC50 [1] | IC50 [2]
19 | COC(=O)N1CCC(N2C(=O)N(c3c(F)c(OC)cc(OC)c3F)Cc3cnc(-c4cn(C)nc4C)cc32)CC1 [Example 122, Methyl 4-(3-(2,6-difluoro-3,5-dimethoxyphenyl)-7-(1,3-dimethyl-1H-pyrazol-4-yl)-2-oxo-3,4-dihydropyrido[4,3-d]pyrimidin-1(2H)-yl)piperidine-1-carboxylate] | >5 | >5 |  |  | 10 to 30 nM | 30 to 200 nM |  |  |  |  |  |  | 10 to 30 nM | 30 to 200 nM
